Drawing on ChEMBL document CHEMBL5352394, “Development of fluorizoline analogues as prohibitin ligands that modulate C-RAF signaling, p21 expression and melanogenesis” (Eur J Med Chem, 2022), this text covers Activity and inhibition for twelve compounds.

The test system of test [1] is HeLa. Briefly: Cytotoxicity against human HeLa cells assessed as reduction in cell viability measured after 24 hrs by MTT assay. It is filed as functional, cell-based. As to conditions: dose 1.25-10 µM. On the technique in general: Tetrazolium dyes change colour on reduction, which living cells bring about.
For test [2], the system named is HBL. Description: Induction of pigmentation in human HBL cells assessed as melanogenesis at 0.1 to 10 uM by microscopic analysis. As to conditions: dose 0.1-10 µM. It is filed as functional, cell-based.
The target in test [3] is RAF proto-oncogene serine/threonine-protein kinase (Homo sapiens) (UniProt P04049). Briefly: Inhibition of C-RAF phosphorylation at Ser 338 residue in human HeLa cells at 10 uM preincubated with compound for 1 hr and followed by EGF stimulation for 30 mins by Western blot analysis. Type of test: cell-based.
Test [4] deals with Dual specificity mitogen-activated protein kinase kinase 1 (Homo sapiens) (UniProt Q02750). Description: Inhibition of MEK1 phosphorylation in human HeLa cells at 10 uM preincubated for 1 hr and followed by EGF stimulation for 30 mins by Western blot analysis. Type of test: cell-based. A general note: Immunoblotting shows a protein as a band on a membrane.
Test [5] deals with MCF7. Description: Upregulation of p21 expression in human MCF7 cells at 1 uM incubated for 72 hrs by Western blot analysis. Type of test: functional, cell-based.
The subject of test [6] is MCF7. Briefly: Antiproliferative activity against human MCF7 cells assessed as reduction in cell viability at 1 uM incubated for 72 hrs by trypan blue exclusion assay. It is filed as functional, cell-based.
Test [7] deals with MCF7. Description: Antiproliferative activity against human MCF7 cells transfected with p21 siRNA assessed as reduction in cell viability at 1 uM incubated for 48 hrs by tryphan blue dye exclusion analysis. Type of test: functional, cell-based.

Calls of active or inactive are those of the source. No cut-off for these calls is given here.

RAF proto-oncogene serine/threonine-protein kinase (Homo sapiens), sequence (P04049 whole entry): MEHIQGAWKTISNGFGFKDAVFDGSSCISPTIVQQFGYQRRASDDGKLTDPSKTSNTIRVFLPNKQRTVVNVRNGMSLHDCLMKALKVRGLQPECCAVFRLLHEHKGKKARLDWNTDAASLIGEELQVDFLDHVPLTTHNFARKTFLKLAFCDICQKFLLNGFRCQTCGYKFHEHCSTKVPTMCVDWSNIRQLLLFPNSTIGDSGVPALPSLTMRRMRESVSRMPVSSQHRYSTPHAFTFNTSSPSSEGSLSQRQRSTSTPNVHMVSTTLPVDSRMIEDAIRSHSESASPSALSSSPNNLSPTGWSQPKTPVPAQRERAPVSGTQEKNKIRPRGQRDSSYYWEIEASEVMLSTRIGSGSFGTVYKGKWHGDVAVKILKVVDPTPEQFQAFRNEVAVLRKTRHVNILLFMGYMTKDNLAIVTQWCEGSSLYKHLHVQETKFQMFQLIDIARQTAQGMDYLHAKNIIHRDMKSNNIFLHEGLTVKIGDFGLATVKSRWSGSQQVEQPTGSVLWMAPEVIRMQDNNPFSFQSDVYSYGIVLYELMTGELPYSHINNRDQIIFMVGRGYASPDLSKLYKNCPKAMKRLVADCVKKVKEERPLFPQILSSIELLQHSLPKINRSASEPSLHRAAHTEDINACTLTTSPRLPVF
Dual specificity mitogen-activated protein kinase kinase 1 (Homo sapiens), sequence (Q02750 whole entry): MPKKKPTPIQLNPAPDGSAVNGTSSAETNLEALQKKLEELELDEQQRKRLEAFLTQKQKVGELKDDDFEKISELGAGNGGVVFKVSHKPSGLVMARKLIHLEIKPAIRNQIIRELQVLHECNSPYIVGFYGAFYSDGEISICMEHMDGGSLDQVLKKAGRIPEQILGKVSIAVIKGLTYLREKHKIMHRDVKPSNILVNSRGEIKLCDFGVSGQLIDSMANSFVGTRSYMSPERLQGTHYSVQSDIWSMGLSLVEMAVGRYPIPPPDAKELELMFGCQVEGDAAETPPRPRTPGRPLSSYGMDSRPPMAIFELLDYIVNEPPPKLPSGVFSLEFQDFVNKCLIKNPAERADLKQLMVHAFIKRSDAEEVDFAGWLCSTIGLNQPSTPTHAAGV

`FC1(F)N=C(c2ccc(Cl)cc2)SC1(F)c1ccc(Cl)cc1` (stereo not drawn): the Activity entry in test [1] is “Dose-Dependent Effect”. Moreover, in test [2], the outcome was Active.

Turning to `FC1(F)N=C(c2ccccn2)SC1(F)c1ccccc1` (stereo not drawn), in test [3], the inhibition entry was “Active”. For the same compound, the result in test [2] was Active.

With `FC1(F)SC(c2ccc(Cl)cc2)=NC1(F)c1ccc(Cl)cc1` (stereo not drawn), the inhibition entry in test [3] and in test [4] was “inactive” each time. Further, the result in test [5] and in test [6] was inactive. Further, the result in test [2] was Active.

For `FC1(F)N=C(c2ccc(Cl)cn2)SC1(F)c1ccc(Cl)cc1` (stereo not drawn), the inhibition result in test [3] is “Active”. For the same compound, the inhibition result in test [4] is “inactive”. The Activity entry in test [1] was “Dose-Dependent Effect”. In test [2], the outcome was Active.

As to `Cc1ccc(C2(F)SC(c3ccc(Cl)cc3)=NC2(F)F)cc1` (stereo not drawn), the inhibition entry in test [3] and in test [4] was “Active” throughout. Further, the Activity result in test [1] is “Dose-Dependent Effect”. The result in test [2] was Active.

Regarding `FC1(F)N=C(c2ncccn2)SC1(F)c1ccc(Cl)cc1` (stereo not drawn), the inhibition result in test [3] and in test [4] was “Active” each time. Besides, in test [2], the result was Active.

Regarding `FC1(F)N=C(c2ccc(Br)cc2)SC1(F)c1ccc(Cl)cc1` (stereo not drawn), the inhibition entry in test [3] is “Active”. Besides, the Activity entry in test [1] was “Dose-Dependent Effect”. Also, the outcome in test [5], in test [6] and in test [2] was Active.

Turning to `FC1(F)N=C(c2ccccn2)SC1(F)c1ccc(Cl)cc1` (stereo not drawn), the inhibition entry in test [3] and in test [4] was “Active” in each case. The result in test [2] was Active.

In the case of `FC1(F)N=C(c2cnccn2)SC1(F)c1ccc(Cl)cc1` (stereo not drawn), the inhibition result in test [3] and in test [4] was “inactive” throughout. Besides, the outcome in test [5], in test [6] and in test [2] was Active. The result in test [7] was inactive.

For the compound `Cc1ccc(C2(F)SC(c3ccccc3)=NC2(F)F)cc1` (stereo not drawn), the inhibition result in test [3] and in test [4] was “inactive” each time. The Activity result in test [1] is “Dose-Dependent Effect”. Also, the result in test [7] was inactive. Further, the outcome in test [2] was Active.

Consider `CC1(F)N=C(c2ccc(Cl)cc2)SC1(F)c1ccc(Cl)cc1` (stereo not drawn), for which the inhibition entry in test [3] is “inactive”. In addition, the inhibition result in test [4] is “Active”.

`O=C(c1ccccc1)c1ccc(C2=NC(F)(F)C(F)(c3ccc(Cl)cc3)S2)cc1` (stereo not drawn): the inhibition result in test [3] is “Active”. Also, the outcome in test [2] was Active.
